Here are results for one compound from paper PMC9605737, “Identification of 6ω-cyclohexyl-2-(phenylamino carbonylmethylthio)pyrimidin-4(3H)-ones targeting the ZIKV NS5 RNA dependent RNA polymerase” (Frontiers in Chemistry, 2022).

Where only a bound is given, the exact number is not on record here.

The test system of data set [1] is ZIKV. Kind of data set: Four different methods of drug treatment (virus, co-, pre-, post-treatment). It is filed as cell-based, Zika virus. The following applies: viral load. An excerpt:
(§1) ZIKV RdRp was a important domain in the C-terminal of ZIKV NS5, and plays a crucial role in the replication and synthesis of RNA in the life cycle of ZIKV. In order to further verify that 4w activity is related to RdRp domain inhibition, we examined the effect of 4w on the replication cycle of ZIKV using four different drug treatments and time-sharing withdrawal experiments (Figure 7A).
As mentioned above ([Duan et al., 2019]; [Zou et al., 2020]), according to the different life cycles of the ZIKV, four different drug treatment methods are set: virus treatment, co-treatment, pre-treatment, post-treatment. For virus treatment, the ZIKV and 4w were pre-treated in a 4°C refrigerator for 1 h, then the treated virus was added to the cells for 2 h of infection, and the virus was discarded, washed twice with PBS, and added to maintenance medium (containing 2% FBS DMEM high sugar medium), continue to culture at 37°C, 5% CO2 incubator for 3 days, collect the cell supernatant for RT-PCR and plaque experiments. For co-treatment: add 4w and ZIKV to the cells at the same time, incubate at 37°C, 5% CO2 for 2 h, then remove the virus and compounds, add maintenance medium for 3 days. Pre-treatment: Compound 4w and cells were treated at 4°C for 1 h, then 4w was removed, ZIKV was added for 2 h, remove virus and the maintenance medium was added to continue culturing for 3 days. […]

Data set [2] concerns ZIKV RNA. Kind of data set: qRT-PCR viral load in supernatant of ZIKV-infected A549 cells. The following applies: Zika virus, A549, read-out: EC50, inhibition of ZIKV RNA replication. It is filed as cell-based. The text has this: (§2) In order to re-verify the inhibitory effect of 4w on ZIKV at the molecular level, we used ZIKV to infect cell lines of different origins (A549, Vero, Huh7 cells) and then treated with 4w in a concentration gradient. The change of viral load in the supernatant of cells after treatment was detected by qRT-PCR method.
(§3) Cells were infected with ZIKV SZ-WIV01 and then treated with 4w. The viral load in the supernatant was detected by Quantitative real-time polymerase chain reaction (qRT-PCR) at in different time periods after infection. Then the RNA from culture supernatant was extracted using the EasyPure ® Viral DNA/RNA Kit (TransGen Biotech, China) following the manufacturer’s instructions. Intracellular RNA extraction was according to trizol method. A one-step qRT-PCR kit RNA-direct™ Realtime PCR Master Mix (TOYOBO, Japan) and TaqMan probe were used to quantify the viral RNA produced. The primers (NS5 ZIKV 1086F: 5′-CCGCTGCCCAACACAAG-3′ and NS5 ZIKV 1086R: 3′-[…] C-5′) and probe (5′-FAM-[…]-TAMRA -3′) were used for amplification of the ZIKV NS5 region. A standard curve of the serial dilutions was used to quantify the viral RNA yield.
(§4) The 50% effective concentration (EC50) and 50% cytotoxic concentration (CC50) of the compound were calculated according to the Reed and Muench method, inhibition rate of ZIKV RNA yield- [(1-drug treatment/positive control) × 100]. […]

Data set [3] concerns ZIKV RNA. Kind of data set: qRT-PCR viral load in supernatant of ZIKV-infected Vero cells. As to conditions: Zika virus, read-out: EC50, inhibition of ZIKV RNA replication. It is filed as cell-based.
Source text: as §2, §3, §4

A short description of data set [4]: MTT cytotoxicity assay in Huh7 cells. It is filed as cell-based. The following applies: human. The procedure:
MTT assay was used to detect the toxicity of the compound. Cells were seeded in 96-well plates and cultured overnight. Compounds with different concentrations were added and incubated for 96 h. Then, 20 μl of 5 mg/ml MTT (Sigma-Aldrich, United States) solution was added to each well and kept at 37°C for 4 h. Subsequently, 100 μl of 12% SDS-50% DMF (Sigma-Aldrich, United States) solution was added and incubated overnight at 37°C. After the crystalline formamidine was completely dissolved, the optical density (OD) value was measured using a microplate reader (BioTek, United States) with a wavelength of 570 nm and a reference wavelength of 630 nm.
The 50% effective concentration (EC50) and 50% cytotoxic concentration (CC50) of the compound were calculated according to the Reed and Muench method, inhibition rate of ZIKV RNA yield- [(1-drug treatment/positive control) × 100]. The data and graphs were processed using GraphPad Prism8 software, expressed as mean ± standard deviation (Mean ± SD), comparison between groups using ANOVA, p < 0.05 was considered statistically significant.

The subject of data set [5] is ZIKV. Kind of data set: Time of drug withdrawal experiment. It is filed as cell-based, Zika virus. As to conditions: 50 μM, drug withdrawal 4–6 h after dosing, viral load after 24 h. The procedure: as §1
The virus was added to the cells and adsorbed for 2 h at 4°C, then the unabsorbed virus was washed away with pre-cooled PBS, and 50 μM 4w was added at the same time. Withdraw the drug at 1, 2, 4, 6, 8, and 12 h after dosing. The cell supernatant was collected for viral load detection after the maintenance medium continued to culture for 24 h.

With `CCc1c(C2CCCCC2)nc(SCC(=O)Nc2cc(F)cc(F)c2)[nH]c1=O` [Compound 4w, 2-{[4-cyclohexyl-5-ethyl-6-oxo-1,6-dihydropyrimidin-2-yl]thio}-N-(3,5-difluorophenyl)acetamide], in the data set on ZIKV [1], the “stage of the ZIKV replication cycle acted on” value is “mainly acts on the post-entry stage of the virus”. Also, the values for the EC50 in the data set on ZIKV RNA [2] and with ZIKV RNA [3] were 5.18 ± 0.69 µM and 6.87 ± 1.21 µM, respectively. The CC50 at 96 h in data set [4] was > 200 µM. The “effect of drug withdrawal on release of progeny virus” value with ZIKV [5] is on record as “significantly inhibit the release of progeny virus”.
